# Measured values reported in PubChem BioAssay AID2060901 (Molecular Pharmacology Branch, DTP, NCI, 2025).
# Tested on: 422866-222-R5-J1-PDC complex spheroids viability
# Test: Anticancer human tumor 422866-222-R5-J1-PDC patient-derived pancreatic adenocarcinoma cell line growth inhibition [RAS]
# Details: for viability, T/C: stronger effect = lower value
# How it was run: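 Tumour cells grown as complex spheroids with HUVEC endothelial cells and mesenchymal stem cells, treated with RAS pathway inhibitor combinations. Each agent spans half-log steps from near clinical Cmax, or 10 microM where Cmax is unknown.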
# [1] = curve of first compound, second compound 0.000949 µM
# [2] = curve of first compound, second compound 0.003 µM
# [3] = curve of first compound, second compound 0.00949 µM
# [4] = curve of first compound, second compound 0.03 µM
# [5] = curve of first compound, second compound 0.0949 µM
# [6] = curve of first compound, second compound 0.3 µM
# [7] = second compound 0.000949 µM, first compound 0.00316 µM
# [8] = second compound 0.000949 µM, first compound 0.01 µM
# [9] = second compound 0.000949 µM, first compound 0.0316 µM
# [10] = second compound 0.000949 µM, first compound 0.1 µM
# [11] = second compound 0.000949 µM, first compound 0.316 µM
# [12] = second compound 0.000949 µM, first compound 1 µM
# [13] = second compound 0.003 µM, first compound 0.00316 µM
# [14] = second compound 0.003 µM, first compound 0.01 µM
# [15] = second compound 0.003 µM, first compound 0.0316 µM
# [16] = second compound 0.003 µM, first compound 0.1 µM
# [17] = second compound 0.003 µM, first compound 0.316 µM
# [18] = second compound 0.003 µM, first compound 1 µM
# [19] = second compound 0.00949 µM, first compound 0.00316 µM
# [20] = second compound 0.00949 µM, first compound 0.01 µM
# [21] = second compound 0.00949 µM, first compound 0.0316 µM
# [22] = second compound 0.00949 µM, first compound 0.1 µM
# [23] = second compound 0.00949 µM, first compound 0.316 µM
# [24] = second compound 0.00949 µM, first compound 1 µM
# [25] = second compound 0.03 µM, first compound 0.00316 µM
# [26] = second compound 0.03 µM, first compound 0.01 µM
# [27] = second compound 0.03 µM, first compound 0.0316 µM
# [28] = second compound 0.03 µM, first compound 0.1 µM
# [29] = second compound 0.03 µM, first compound 0.316 µM
# [30] = second compound 0.03 µM, first compound 1 µM
# [31] = second compound 0.0949 µM, first compound 0.00316 µM
# [32] = second compound 0.0949 µM, first compound 0.01 µM
# [33] = second compound 0.0949 µM, first compound 0.0316 µM
# [34] = second compound 0.0949 µM, first compound 0.1 µM
# [35] = second compound 0.0949 µM, first compound 0.316 µM
# [36] = second compound 0.0949 µM, first compound 1 µM
# [37] = second compound 0.3 µM, first compound 0.00316 µM
# [38] = second compound 0.3 µM, first compound 0.01 µM
# [39] = second compound 0.3 µM, first compound 0.0316 µM
# [40] = second compound 0.3 µM, first compound 0.1 µM
# [41] = second compound 0.3 µM, first compound 0.316 µM
# [42] = second compound 0.3 µM, first compound 1 µM
# 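Further: spheroids exposed to compounds for 7 days.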
# 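Wherever viability, T/C is given: 100% = DMSO vehicle control viability.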
compound,measurement,setting,value
Nc1ccn(C2OC(CO)C(O)C2(F)F)c(=O)n1 (stereo not given) + CCn1c(-c2cc(N3CCN(C)CC3)cnc2C(C)OC)c2c3cc(ccc31)-c1csc(n1)CC(NC(=O)C1CC1C)C(=O)N1CCCC(N1)C(=O)OCC(C)(C)C2,IC50,[1],< 3.16 nM
same,IC50,[2],< 3.16 nM
same,IC50,[3],< 3.16 nM
same,IC50,[4],< 3.16 nM
same,IC50,[5],< 3.16 nM
same,IC50,[6],< 3.16 nM
same,"viability, T/C",[7],30.8%
same,"viability, T/C",[8],27.9%
same,"viability, T/C",[9],25.3%
same,"viability, T/C",[10],24.1%
same,"viability, T/C",[11],22.2%
same,"viability, T/C",[12],19.4%
same,"viability, T/C",[13],25.6%
same,"viability, T/C",[14],23.5%
same,"viability, T/C",[15],20.5%
same,"viability, T/C",[16],16.5%
same,"viability, T/C",[17],18.6%
same,"viability, T/C",[18],17.4%
same,"viability, T/C",[19],20.4%
same,"viability, T/C",[20],21.1%
same,"viability, T/C",[21],20.4%
same,"viability, T/C",[22],16.3%
same,"viability, T/C",[23],15.2%
same,"viability, T/C",[24],15.8%
same,"viability, T/C",[25],18.9%
same,"viability, T/C",[26],20.1%
same,"viability, T/C",[27],17.4%
same,"viability, T/C",[28],16.1%
same,"viability, T/C",[29],15.8%
same,"viability, T/C",[30],14.7%
same,"viability, T/C",[31],19.3%
same,"viability, T/C",[32],20.8%
same,"viability, T/C",[33],16.7%
same,"viability, T/C",[34],15.6%
same,"viability, T/C",[35],16.6%
same,"viability, T/C",[36],16.4%
same,"viability, T/C",[37],20%
same,"viability, T/C",[38],20.4%
same,"viability, T/C",[39],18.5%
same,"viability, T/C",[40],18.7%
same,"viability, T/C",[41],18.9%
same,"viability, T/C",[42],15.4%
C#Cc1c(F)ccc2cc(O)cc(-c3ncc4c(N5CC6CCC(C5)N6)nc(OCC56CCCN5CC(F)C6)nc4c3F)c12 (stereo not given),"viability, T/C",compound 0.0316 µM,98.7% [middle of 8 runs]
same,"viability, T/C",compound 0.316 µM,67.4% [middle of 8 runs]
same,"viability, T/C",compound 1 µM,51.8% [middle of 8 runs]
same,"viability, T/C",compound 3.16 µM,37.3% [middle of 8 runs]
same,"viability, T/C",compound 10 µM,26.2% [middle of 8 runs]
same,IC50,"compound alone, run of 06/10/2024",1.11 µM [middle of 8 runs]
C=CC(=O)Nc1cc(Nc2nccc(-c3cn(C)c4ccccc34)n2)c(OC)cc1N(C)CCN(C)C + CCn1c(-c2cccnc2C(C)OC)c2c3cc(ccc31)N1CCOC(CC(NC(=O)C(C(C)C)N(C)C(=O)C3(F)CCN(C(=O)C#CC(C)(C)N(C)C)CC3)C(=O)N3CCCC(N3)C(=O)OCC(C)(C)C2)C1,IC50,[1],< 3.16 nM
same,IC50,[2],< 3.16 nM
same,IC50,[3],< 3.16 nM
same,IC50,[4],< 3.16 nM
same,IC50,[5],< 3.16 nM
same,IC50,[6],< 3.16 nM
same,"viability, T/C",[7],26.2%
same,"viability, T/C",[8],27.5%
same,"viability, T/C",[9],26.2%
same,"viability, T/C",[10],23%
same,"viability, T/C",[11],19.7%
same,"viability, T/C",[12],22.6%
same,"viability, T/C",[13],25%
same,"viability, T/C",[14],19.2%
same,"viability, T/C",[15],23.7%
same,"viability, T/C",[16],16.8%
same,"viability, T/C",[17],14.6%
same,"viability, T/C",[18],15.2%
same,"viability, T/C",[19],21.9%
same,"viability, T/C",[20],21.4%
same,"viability, T/C",[21],17.2%
same,"viability, T/C",[22],16.4%
same,"viability, T/C",[23],13.8%
same,"viability, T/C",[24],16.4%
same,"viability, T/C",[25],29.2%
same,"viability, T/C",[26],19.8%
same,"viability, T/C",[27],14.6%
same,"viability, T/C",[28],15.8%
same,"viability, T/C",[29],15.9%
same,"viability, T/C",[30],15.4%
same,"viability, T/C",[31],18.7%
same,"viability, T/C",[32],16.2%
same,"viability, T/C",[33],15.5%
same,"viability, T/C",[34],11.9%
same,"viability, T/C",[35],13.5%
same,"viability, T/C",[36],13.1%
same,"viability, T/C",[37],15.2%
same,"viability, T/C",[38],15.7%
same,"viability, T/C",[39],17.4%
same,"viability, T/C",[40],13.8%
same,"viability, T/C",[41],13.7%
same,"viability, T/C",[42],13.2%
